Test results: PMC7064328 (Environmental Health Perspectives, 2020)

Key:
Type in all cases: in vivo, mouse (CD-1)
[1] = test system: Pregnant CD-1 mice; assay: Clinical chemistry of dam serum and urine; details: for ALB / ALP / ALT / AST / BUN / Chol / Cre / Glu / HDL / LDL / SDH / TBA / TP / Trig: dam serum; for Ucrea: dam urine
Description: Dam livers, kidneys, and placentas were trimmed and embedded by the NIEHS Mouse Embryo Phenotyping Core. Tissues collected at necropsy were fixed in 4% PFA for 72 h and paraffin embedded, and 5-μm sections were prepared and stained with hematoxylin and eosin (H&E). Pathology was evaluated and a pathology review conducted by S.A.E. Diplomate American College of Veterinary Pathologists (DACVP). Pathology reviews were conducted as an informed approach analysis [e.g., nonblinded analysis; see Sills et al. ([2019])]. Select tissue slides were scanned using the AT2 Scanner (Aperio). Images were then captured for publication using the ImageScope software; version 12.3.0.5056 (Aperio). Serum and urine obtained from dams in Block 2 were analyzed using the AU480 clinical chemistry analyzer (Beckman Coulter Inc.). Reagents and calibration standards used to measure alkaline phosphatase (ALP), alanine aminotransferase (ALT), aspartate aminotransferase (AST), blood urea nitrogen (BUN), serum creatinine, urine creatinine, glucose (Glu), total protein (TP), triglyceride (Trig), high-density lipoprotein (HDL), cholesterol (Chol), and albumin (ALB) were purchased from Beckman Coulter Inc. Reagents for sorbitol dehydrogenase (SDH), total bile acid (TBA), and micro-TP were purchased from Sekisui Diagnostics. The reagent used to measure low-density lipoprotein (LDL) was purchased form Diazyme Laboratories.

[2] = test system: Pregnant CD-1 mice; assay: Litter parameters at necropsy (implantation sites, resorptions, viable and nonviable embryos); details: for % nonviable / % resorbed: percent of implantation sites
Description: (§1) On the day of necropsy, dams received daily oral gavage between 0700 and 0800 hours and were weighed and then euthanized humanely by swift decapitation, and serum was collected. In Block 1, necropsies were completed from 0800 to 1600 hours, and in Block 2, necropsies were completed from 0800 to 1200 hours. Serum from dams euthanized in Block 1 was snap frozen for internal dosimetry analyses. Serum and urine from Block 2 dams were reserved for clinical chemistry analyses. In both blocks, the uterus was removed, and total implantation sites were counted based on gross observation of an implantation nodule along the uterine horn. Viable embryos, nonviable embryos, and sites of resorption were counted based on gross observation. Embryos were considered viable if they were properly formed, were not pale in color, and were of similar size to neighboring embryos. Embryos that were poorly formed and pale in color (without heartbeat) were considered nonviable. Sites of resorption were defined as a dark red–appearing clot-like nodule apparent on gross observation.

[3] = as above; details: female, CD-1, mouse, in vivo, oral, percent of implantation sites
Description: as §1

SMILES: N.O=C(O)C(F)(OC(F)(F)C(F)(F)C(F)(F)F)C(F)(F)F (stereo not shown) [GenX, ammonium 2,3,3,3-tetrafluoro-2-(heptafluoropropoxy)propanoate]
- Chol higher compared with controls ([1]; E11.5, 2 mg/kg/d): 66%
- Dam serum Trig lowered vs controls ([1]; E11.5, 2 mg/kg/d): 43%
- HDL higher compared with controls ([1]; E11.5, 2 mg/kg/d): 56%
- Dam serum Trig lowered vs controls ([1]; E11.5, 10 mg/kg/d): 61%
- Dam serum Trig lower vs controls ([1]; E17.5, 10 mg/kg/d): 74%
- LDL lower vs controls ([1]; E17.5, 10 mg/kg/d): 31%
- ALB ([1]; E11.5, 2 mg/kg/d): 2.75±0.33 (4) g/dL
- ALP ([1]; E11.5, 2 mg/kg/d): 58.4±9.0 (5) U/L
- ALT ([1]; E11.5, 2 mg/kg/d): 24.2±13.7 (5) U/L
- AST ([1]; E11.5, 2 mg/kg/d): 69.0±22.0 (5) U/L
- BUN ([1]; E11.5, 2 mg/kg/d): 18.3±4.6 (4) mg/dL
- Chol ([1]; E11.5, 2 mg/kg/d): 93.4±27.8 (5) mg/dL
- Cre ([1]; E11.5, 2 mg/kg/d): 0.2±0.04 (4) mg/dL
- Glu ([1]; E11.5, 2 mg/kg/d): 249.3±25.8 (4) mg/dL
- HDL ([1]; E11.5, 2 mg/kg/d): 50.2±15.7 (5) mg/dL
- LDL ([1]; E11.5, 2 mg/kg/d): 15±4.8 (4) mg/dL
- SDH ([1]; E11.5, 2 mg/kg/d): 7.0±6.5 (4) U/L
- TBA ([1]; E11.5, 2 mg/kg/d): 1.4±0.55 (5) μM/L
- TP ([1]; E11.5, 2 mg/kg/d): 4.5±0.48 (4) g/dL
- Trig ([1]; E11.5, 2 mg/kg/d): 117.6±33.9 (5) mg/dL
- ALB ([1]; E11.5, 10 mg/kg/d): 2.8±0.17 (3) g/dL
- ALP ([1]; E11.5, 10 mg/kg/d): 83.0±25.8 (5) U/L
- ALT ([1]; E11.5, 10 mg/kg/d): 78.2±62.0 (5) U/L
- AST ([1]; E11.5, 10 mg/kg/d): 136.8±138.9 (4) U/L
- BUN ([1]; E11.5, 10 mg/kg/d): 13.7±1.5 (3) mg/dL
- Chol ([1]; E11.5, 10 mg/kg/d): 77.0±16.4 (4) mg/dL
- Cre ([1]; E11.5, 10 mg/kg/d): 0.18±0.02 (3) mg/dL
- Glu ([1]; E11.5, 10 mg/kg/d): 226.7±28.9 (3) mg/dL
- HDL ([1]; E11.5, 10 mg/kg/d): 43.3±6.1 (4) mg/dL
- LDL ([1]; E11.5, 10 mg/kg/d): 12.5±1.9 (4) mg/dL
- SDH ([1]; E11.5, 10 mg/kg/d): 8.0±3.65 (4) U/L
- TBA ([1]; E11.5, 10 mg/kg/d): 35.3±67.8 (4) μM/L
- TP ([1]; E11.5, 10 mg/kg/d): 4.37±0.29 (3) g/dL
- Trig ([1]; E11.5, 10 mg/kg/d): 80.3±14.4 (4) mg/dL
- ALB ([1]; E17.5, 2 mg/kg/d): 2.32±0.26 (5) g/dL
- ALP ([1]; E17.5, 2 mg/kg/d): 55.4±11.8 (5) U/L
- ALT ([1]; E17.5, 2 mg/kg/d): 4.4±3.9 (5) U/L
- AST ([1]; E17.5, 2 mg/kg/d): 65.6±12.1 (5) U/L
- BUN ([1]; E17.5, 2 mg/kg/d): 13.6±1.1 (5) mg/dL
- Chol ([1]; E17.5, 2 mg/kg/d): 86.6±17.1 (5) mg/dL
- Cre ([1]; E17.5, 2 mg/kg/d): 0.17±0.03 (5) mg/dL
- Glu ([1]; E17.5, 2 mg/kg/d): 123.2±13.1 (5) mg/dL
- HDL ([1]; E17.5, 2 mg/kg/d): 39.4±8.5 (5) mg/dL
- LDL ([1]; E17.5, 2 mg/kg/d): 20.0±3.9 (5) mg/dL
- SDH ([1]; E17.5, 2 mg/kg/d): 1.2±2.2 (5) U/L
- TBA ([1]; E17.5, 2 mg/kg/d): 4.8±3.0 (5) μM/L
- TP ([1]; E17.5, 2 mg/kg/d): 4.1±0.36 (5) g/dL
- Trig ([1]; E17.5, 2 mg/kg/d): 257.0±120.3 (5) mg/dL
- ALB ([1]; E17.5, 10 mg/kg/d): 2.26±0.3 (5) g/dL
- ALP ([1]; E17.5, 10 mg/kg/d): 88.8±13.0 (5) U/L
- ALT ([1]; E17.5, 10 mg/kg/d): 9.6±2.1 (5) U/L
- AST ([1]; E17.5, 10 mg/kg/d): 113.2±36.6 (5) U/L
- BUN ([1]; E17.5, 10 mg/kg/d): 15.2±1.8 (5) mg/dL
- Chol ([1]; E17.5, 10 mg/kg/d): 97.4±8.4 (5) mg/dL
- Cre ([1]; E17.5, 10 mg/kg/d): 0.15±0.06 (5) mg/dL
- Glu ([1]; E17.5, 10 mg/kg/d): 111.6±15.5 (5) mg/dL
- HDL ([1]; E17.5, 10 mg/kg/d): 50.0±8.9 (5) mg/dL
- LDL ([1]; E17.5, 10 mg/kg/d): 15.2±2.9 (5) mg/dL
- SDH ([1]; E17.5, 10 mg/kg/d): 11.4±6.8 (5) U/L
- TBA ([1]; E17.5, 10 mg/kg/d): 6.2±4.2 (5) μM/L
- TP ([1]; E17.5, 10 mg/kg/d): 3.9±0.52 (5) g/dL
- Trig ([1]; E17.5, 10 mg/kg/d): 120.6±31.7 (5) mg/dL
- Ucrea ([1]; E11.5, 2 mg/kg/d): 53.2±14.0 (3) mg/dL
- Ucrea ([1]; E11.5, 10 mg/kg/d): 82.9±33.2 (5) mg/dL
- Ucrea ([1]; E17.5, 2 mg/kg/d): 18.6±5.1 (4) mg/dL
- Ucrea ([1]; E17.5, 10 mg/kg/d): 20.2±15.7 (4) mg/dL
- No. dead embryos ([2]; E11.5, 2 mg/kg/d): 0.0 ± 0.0
- No. implantation sites ([2]; E11.5, 2 mg/kg/d): 14.7 ± 2.7
- No. resorptions ([2]; E11.5, 2 mg/kg/d): 0.7 ± 0.8
- No. viable embryos ([2]; E11.5, 2 mg/kg/d): 14.0 ± 2.9
- No. dead embryos ([2]; E11.5, 10 mg/kg/d): 0.1 ± 0.3
- No. implantation sites ([2]; E11.5, 10 mg/kg/d): 14.8 ± 3.7
- No. resorptions ([2]; E11.5, 10 mg/kg/d): 0.9 ± 1.3
- No. viable embryos ([2]; E11.5, 10 mg/kg/d): 13.8 ± 3.7
- No. dead embryos ([2]; E17.5, 2 mg/kg/d): 0.1 ± 0.3
- No. implantation sites ([2]; E17.5, 2 mg/kg/d): 13.8 ± 2.0
- No. resorptions ([2]; E17.5, 2 mg/kg/d): 0.2 ± 0.6
- No. viable embryos ([2]; E17.5, 2 mg/kg/d): 13.5 ± 2.1
- No. dead embryos ([2]; E17.5, 10 mg/kg/d): 0.0 ± 0.0
- No. implantation sites ([2]; E17.5, 10 mg/kg/d): 12.5 ± 3.1
- No. resorptions ([2]; E17.5, 10 mg/kg/d): 0.5 ± 0.7
- No. viable embryos ([2]; E17.5, 10 mg/kg/d): 12.0 ± 3.0
- % nonviable ([2]; E11.5, 2 mg/kg/d): 0.0 ± 0.0%
- % resorbed ([2]; E11.5, 2 mg/kg/d): 5.0 ± 6.2%
- % nonviable ([2]; E11.5, 10 mg/kg/d): 2.1 ± 7.2%
- % resorbed ([2]; E11.5, 10 mg/kg/d): 5.6 ± 7.7%
- % nonviable ([2]; E17.5, 2 mg/kg/d): 0.7 ± 2.4%
- % resorbed ([2]; E17.5, 2 mg/kg/d): 1.2 ± 4.1%
- % nonviable ([2]; E17.5, 10 mg/kg/d): 0.0 ± 0.0%
- % resorbed ([2]; E17.5, 10 mg/kg/d): 3.5 ± 5.3%
- viability ([3]; 2 mg/kg/d, E11.5): 95 ± 6.2%
- viability ([3]; 2 mg/kg/d, E17.5): 98.1 ± 4.6%
- viability ([3]; 10 mg/kg/d, E11.5): 92.4 ± 9.3%
- viability ([3]; 10 mg/kg/d, E17.5): 96.5 ± 5.3%
